In PubChem BioAssay (NCI):
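Compound exposure: 48 hours, 5 concentrations, 96-well plates. GI50 is the concentration that inhibits growth by half. TGI is the concentration that stops growth completely.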

Assays:
Experiment in all cases: DTP human tumour cell line panel, 48 h
[1] = test system: HOP-92 NSCLC
[2] = test system: MDA-MB-231 breast
[3] = test system: TK-10 renal
[4] = test system: SN12C renal
[5] = test system: OVCAR-3 ovarian
[6] = test system: MDA-MB-468 breast
[7] = test system: IGROV1 ovarian
[8] = test system: HS 578T breast
[9] = test system: DU-145 prostate
[10] = test system: MOLT-4 leukemia
[11] = test system: SK-OV-3 ovarian
[12] = test system: OVCAR-5 ovarian
[13] = test system: BT-549 breast
[14] = test system: UO-31 renal
[15] = test system: HT29 colon
[16] = test system: HCC-2998 colon
[17] = test system: HL-60(TB) leukemia
[18] = test system: HCT-116 colon
[19] = test system: K-562 leukemia
[20] = test system: NCI-H23 lung
[21] = test system: SK-MEL-28 melanoma
[22] = test system: KM12 colon
[23] = test system: PC-3 prostate
[24] = test system: CAKI-1 renal
[25] = test system: T-47D breast
[26] = test system: UACC-62 melanoma
[27] = test system: NCI/ADR-RES ovarian
[28] = test system: MCF7 breast
[29] = test system: NCI-H460 lung
[30] = test system: HCT-15 colon
[31] = test system: OVCAR-4 ovarian
[32] = test system: MDA-MB-435
[33] = test system: HOP-62 NSCLC
[34] = test system: LOX IMVI melanoma
[35] = test system: EKVX NSCLC
[36] = test system: SW-620 colon
[37] = test system: ACHN renal
[38] = test system: M14 melanoma
[39] = test system: 786-0 renal
[40] = test system: A549 NSCLC
[41] = test system: SF-295 CNS
[42] = test system: RXF 393 renal
[43] = test system: SNB-19 CNS
[44] = test system: SK-MEL-5 melanoma
[45] = test system: A498 renal
[46] = test system: SF-268 CNS
[47] = test system: CCRF-CEM leukemia
[48] = test system: SNB-75 CNS
[49] = test system: SK-MEL-2 melanoma
[50] = test system: NCI-H226 lung
[51] = test system: MALME-3M melanoma
[52] = test system: RPMI-8226 leukemia
[53] = test system: SF-539 CNS
[54] = test system: OVCAR-8 ovarian
[55] = test system: NCI-H522 lung
[56] = test system: COLO 205 colon
[57] = test system: UACC-257 melanoma
[58] = test system: U251 CNS

## Cn1cc(NC(=O)c2cc(NC(=O)c3ccc(C#Cc4ccccc4)cc3)cn2C)cc1C(=O)NCCCN1CCOCC1
[1]
  GI50: 5.05 µM
  TGI: 20.4 µM
[2]
  GI50: 10.3 µM
  TGI: > 32.5 µM
[3]
  GI50: > 32.5 µM
  TGI: > 32.5 µM
[4]
  GI50: 7.08 µM
  TGI: > 32.5 µM
[5]
  GI50: 6.21 µM
  TGI: > 32.5 µM
[6]
  GI50: 7.75 µM
  TGI: 25.5 µM
[7]
  GI50: > 32.5 µM
  TGI: > 32.5 µM
[8]
  GI50: 7.04 µM
  TGI: > 32.5 µM
[9]
  GI50: 11.6 µM
  TGI: > 32.5 µM
[10]
  GI50: 8.41 µM
  TGI: > 32.5 µM
[11]
  GI50: > 32.5 µM
  TGI: > 32.5 µM
[12]
  GI50: > 32.5 µM
  TGI: > 32.5 µM
[13]
  GI50: 5.22 µM
  TGI: 20 µM
[14]
  GI50: 14 µM
  TGI: > 32.5 µM
[15]
  GI50: 6.62 µM
  TGI: 22.9 µM
[16]
  GI50: 11.9 µM
  TGI: > 32.5 µM
[17]
  GI50: 5.19 µM
  TGI: 32.3 µM
[18]
  GI50: 8.36 µM
  TGI: > 32.5 µM
[19]
  GI50: 8.4 µM
  TGI: > 32.5 µM
[20]
  GI50: 14.3 µM
  TGI: > 32.5 µM
[21]
  GI50: > 32.5 µM
  TGI: > 32.5 µM
[22]
  GI50: 11.2 µM
  TGI: > 32.5 µM
[23]
  GI50: 12.2 µM
  TGI: > 32.5 µM
[24]
  GI50: 17.5 µM
  TGI: > 32.5 µM
[25]
  GI50: 5.88 µM
  TGI: > 32.5 µM
[26]
  GI50: 11 µM
  TGI: > 32.5 µM
[27]
  GI50: 7.66 µM
  TGI: 23.8 µM
[28]
  GI50: 6.15 µM
  TGI: 30.8 µM
[29]
  GI50: 10.1 µM
  TGI: > 32.5 µM
[30]
  GI50: 5.47 µM
  TGI: 13.7 µM
[31]
  GI50: 25.6 µM
  TGI: > 32.5 µM
[32]
  GI50: 9.91 µM
  TGI: > 32.5 µM
[33]
  GI50: 18 µM
  TGI: > 32.5 µM
[34]
  GI50: 4.94 µM
  TGI: 9.38 µM
[35]
  GI50: 10.6 µM
  TGI: > 32.5 µM
[36]
  GI50: 9.25 µM
  TGI: > 32.5 µM
[37]
  GI50: 16.4 µM
  TGI: > 32.5 µM
[38]
  GI50: 12.6 µM
  TGI: > 32.5 µM
[39]
  GI50: 9.11 µM
  TGI: 29.5 µM
[40]
  GI50: 20 µM
  TGI: > 32.5 µM
[41]
  GI50: 12.6 µM
  TGI: > 32.5 µM
[42]
  GI50: 2.55 µM
  TGI: 21.1 µM
[43]
  GI50: > 32.5 µM
  TGI: > 32.5 µM
[44]
  GI50: 11.3 µM
  TGI: > 32.5 µM
[45]
  GI50: > 32.5 µM
  TGI: > 32.5 µM
[46]
  GI50: 12.2 µM
  TGI: > 32.5 µM
[47]
  GI50: 6.76 µM
  TGI: > 32.5 µM
[48]
  GI50: 6.71 µM
  TGI: > 32.5 µM
[49]
  GI50: 6.15 µM
  TGI: 14.4 µM
[50]
  GI50: 16.6 µM
  TGI: > 32.5 µM
[51]
  GI50: 13.3 µM
  TGI: > 32.5 µM
[52]
  GI50: 5.61 µM
  TGI: 32.3 µM
[53]
  GI50: 6.37 µM
  TGI: 14.5 µM
[54]
  GI50: 6.14 µM
  TGI: 20.2 µM
[55]
  GI50: 8.72 µM
  TGI: > 32.5 µM
[56]
  GI50: > 32.5 µM
  TGI: > 32.5 µM
[57]
  GI50: 18.9 µM
  TGI: > 32.5 µM
[58]
  GI50: 9.01 µM
  TGI: > 32.5 µM
